This is an account of results in US12251234B2, “Systems and methods for transdermally detecting tissue ischemia and evaluating organ function using serum luminescence” (University of Macau, priority 2018, dated 2025).

Data set [1] in a line: ICG fluorescence dosimetry in rat blood vessels (retention/decay of ICG in circulation). The class given is in vivo. As to the method:
Embodiments of the present disclosure enable systems and methods for detecting organ dysfunction and were validated using two optical systems to perform ICG fluorescence dosimetry on rats developing hepatocellular carcinoma (HCC).
One optical system used was a multiphoton microscope, which can non-invasively identify the location of vessels in vivo from sectioning two-photon fluorescence imaging. Time-course dynamics of concentration decay were also analyzed by the signal intensity within vessels. The other tested optical system was a point excitation and time course measurement using a 785 nm laser.
As shown in the diagram of FIG. 11, the multiphoton microscopy system used the scanning inverted microscope system of Leica DMI 3000M. The laser source was the femtosecond Cr:forsterite laser with a central wavelength of about 1250 nm. The output power was about 570 mW, and the beam diameter was about 2.5 mm. The excited light passed through a set of Galilean telescopes consisting of flat convex lenses and flat concave lenses to shrink the beam size down below 2 mm. Then, the excited beam passed through the periscope to rotate the polarization. After passing through the Iris Pair for system alignment, the beam entered a scanning module composed of a 16 kHz resonant mirror and a galvanometer mirror. The scanning angle of the resonant scanner was 5 degrees. The excited light was expanded by a set of relaying lenses so that it just filled the back aperture of the objective lens. The excitation beam was reflected by a 900-nm edged dichroic beam splitter (DM 900 SP) and focused by an objective lens (63×/NA 1.15. Zeiss) to excite biological tissues.
The generated two-photon fluorescence signals of ICG were epi-collected by the same objective lens and penetrated the DM900 SP. The signals were directed to a 484 nm edged dichroic beam splitter (DM484LP). The third harmonic generation signal (417 nm) was separated from the fluorescent signals longer than 484 nm. The third harmonic generation (THG) and two photon fluorescent (TPF) signals were filtered by a 414 nm/18 nm band pass filter and a 650 nm long pass filter, respectively. These signals were subsequently detected by photomultiplier tubes and digitized by a field programmable logic gate array (FPGA).
After the injection of ICG into the tail, there was a relatively low scattering and absorption of laser in the 1230 nm band, so the wavelength band could penetrate the skin deeper, and the background noise was low. Because blood cells can give strong THG signals, it was possible to locate the blood vessel by using THG imaging, as shown in FIG. 15A. Before ICG injection, there was no TPF signal (see FIG. 15B). After the injection, the TPF signals appeared immediately in the region of vessel (see FIG. 15C).
By selecting the region of interest (ROI) within vessel, we quantified the TPF intensity within the vessels. The fluorescence dosimetry curve of ICG can thus be measured (as shown in FIG. 16), which is ideal to evaluate the liver function. The dosimetry curve can be fitted with a single exponential decay function (red curve in FIG. 16), which represents a 4.4 minutes decay time constant after injection of ICG. The decay constant can be used as an index to evaluate the liver function. For Group 1 and Group 3 four serum parameters were measured to obtain liver function information: serum albumin, total bilirubin, GPT, and GOT. […]

For data set [2] the following is noted: healthy person; cited from earlier work.
The subject of the next data set is liver. Nature of the data set: Biochemical assay of rat serum in DEN-induced hepatocellular carcinoma rat model. It is filed as in vivo. The protocol:
Hepatocellular carcinoma (HCC) is a well-known malignant liver tumor often caused by liver cirrhosis. N-Nitrosodiethylamine ([…], DEN), which is a toxic substance with strong liver toxicity, was used to induce HCC in a rat tumor model. The dose of 300 g rats was 0.75 ml DEN/5 liters in drinking water; the dose of 400 g rats was 1.0 ml DEN/5 liters in drinking water. When the rats weighed over 200 g (about 6-7 weeks), they started to be fed. Group 1 was fed a half dose DEN, while Group 3 was fed a full dose. After 6 weeks of consecutive feeding (at the 12th week of experiment), feeding DEN to Group 1 discontinued. Group 3 continued scheduled DEN feedings for three additional weeks. Liver tumors were formed and confirmed by high-frequency ultrasonic imaging in vivo.
After rats were sacrificed, blood was collected and centrifuged, and the serum from centrifuge was tested, which included albumin, total bilirubin, glutamic pyruvic transaminase and glutamic oxaloacetic transaminase. If the liver is abnormal, the albumin content in the blood will decrease. Total bilirubin contains direct bilirubin and indirect bilirubin, which are the product of liver metabolism. If liver function is abnormal, total bilirubin in blood rises. Glutamic-pyruvate transaminase (GPT) and glutamic oxaloacetic transaminase (GOT) are also commonly used markers to evaluate liver function, although these two enzymes are not only found in the liver. Nevertheless, they are more abundant in liver cells than in other organs or tissue. When the liver is damaged, inflamed liver cells release GPT and GOT into the blood in large quantities. Therefore, the amount of these factors in the blood may be useful as a basis for judging the health of liver function. In addition, the liver was made into a paraffin block and processed with H&E staining. The staining results were observed and imaged by Nikon ECLIPSE NiE orthotropic fluorescence microscope.

Setting [3] is: Group 3 rats (full dose DEN, HCC), FIG. 18.
The mark [4] stands for this setting: Group 1: half dose DEN in drinking water, 6 weeks.
[5] abbreviates: Group 3: full dose DEN in drinking water, 9 weeks.

Each structure is given as a SMILES string.

On to `CC1(C)C(/C=C/C=C/C=C/C=C2\N(CCCCS(=O)(=O)O)c3ccc4ccccc4c3C2(C)C)=[N+](CCCCS(=O)(=O)[O-])c2ccc3ccccc3c21` [ICG, indocyanine green], for which, in data set [1] (setting [3]), the “decay time (exponential decay model fit)” value amounted to 13 min and the “initial amount still retained in circulation at 15 minutes post injection” value turned out to be 45%. Further, the “decay time constant after injection of ICG (single exponential decay fit)” value in data set [1] (healthy control Group rats, FIG. 16) was found to be 4.4 min. Moreover, the “amount of ICG metabolized within 15 minutes” value in data set [1] (healthy control Group rats, TPF dosimetry curve, FIG. 16) amounted to 90%. The “leakage of ICG out of blood vessels (TPF imaging after tail injection)” value in data set [1] (rat, sectioning TPF/THG images, FIG. 15) was “did not leak out into extravascular spaces”. Also, the “ICG-15 (retention percentage at 15 minutes post ICG injection)” value in data set [2] is on record as “below 10 % of the initial concentration”.

On to `CCN(CC)N=O` [DEN, N-Nitrosodiethylamine], for which, in the data set with liver (setting [4]), the Albumin worked out at 3.9 g/dL, the GOT was 89 U/L, the GPT stood at 60.3 U/L and the Total bilirubin came to 0.27 mg/dL. Also, in the data set with liver (setting [5]), the Albumin came out at 3.75 g/dL, the GOT is 265 U/L, the GPT stood at 129 U/L and the Total bilirubin amounted to 0.6 mg/dL.
